{
  "source": "patent US8691946B2",
  "about": "“Methods and compositions for soft tissue repair” (Affinergy, LLC, priority 2009, dated 2014)",
  "key": {"[1]": {"tested_on": "human ASCs (adipose-derived mesenchymal stem cells)", "experiment": "Biotinylated peptide binding by flow cytometry (Neutravidin-PE)", "conditions": "biotinylated peptide 25 μM, 30 min, 4° C.", "text": "(§1) The synthetic biotinylated cell binding peptide SEQ ID NO: 4 was examined for its ability to specifically bind MSCs compared to a number of other cells types including adipose-derived mesenchymal stem cells (ASCs), dermal fibroblasts, rodent MSCs, red blood cells, monocytes, lymphocytes and granulocytes. The cell binding peptide was biotinylated as described herein at Example 2. Cultured cells of each type were either purchased (ASCs and dermal fibroblasts) or isolated from rodent bone marrow (rodent MSCs) or human blood. Cells were first harvested and resuspended at 10^6/mL in PBS+2% fetal bovine serum (FBS). An aliquot of cells (50 μL) was incubated in 50 μL of peptide solution (25 μM in PBS+FBS) for 30 min at 4° C. Cells were then washed twice in PBS+FBS with 300×g centrifugation for 5 min between washes. Fluorescently-tagged neutravidin (Neutravidin-PE from INVITROGEN) was then added to the cells to label biotinylated peptide bound to cells. Neutravidin-PE was diluted 1:250 from stock and applied at 50 μL to cells. Cells were then washed in PBS+FBS, and acquired on a BD […]. Peptide reactivity was then measured as percent positivity relative to Neutravidin-PE staining without the addition of biotinylated peptide."}, "[2]": {"tested_on": "human MSCs", "experiment": "Biotinylated peptide binding by flow cytometry (Neutravidin-PE)", "conditions": "biotinylated peptide 25 μM, 30 min, 4° C.", "text": "as §1"}, "[3]": {"tested_on": "dermal fibroblasts", "experiment": "Biotinylated peptide binding by flow cytometry (Neutravidin-PE)", "design": "species or system human", "conditions": "biotinylated peptide 25 μM, 30 min, 4° C.", "text": "as §1"}, "[4]": {"tested_on": "endothelial colony forming cells (ECFCs)", "experiment": "Biotinylated peptide binding to endothelial and other cells by flow cytometry", "design": "species or system human", "conditions": "biotinylated peptide 10 μM", "protocol": "(§2) The synthetic biotinylated binding peptide SEQ ID NO: 4 was further examined for its ability to bind endothelial cells compared to other cell types (see FIG. 16). […] ECFCs are clonally expanded cells isolated from human umbilical cord blood, and are considered highly proliferative endothelial progenitor cells (EPCs) based on their clonogenic and proliferative potential. In another experiment, binding peptide SEQ ID NO: 4 was assayed for its ability to selectively isolate endothelial cells versus smooth muscle cells in the presence of whole blood. HUVECs or UASMCs were incubated in the presence of medium containing 20% whole blood and binding peptide SEQ ID NO: 4-conjugated magnetic beads (via biotin-SA) for 30 min. The solutions containing the bead-peptide-cell complexes were then passed through a […] LS column in a magnetic field. The column was washed, and the remaining peptide-bound cells were then released from the magnetic field and counted."}, "[5]": {"tested_on": "peripheral blood cells", "experiment": "Biotinylated peptide binding to endothelial and other cells by flow cytometry", "design": "species or system human", "conditions": "biotinylated peptide 10 μM", "protocol": "as §2"}, "[6]": {"tested_on": "human umbilical vein endothelial cells (HUVECs)", "experiment": "Biotinylated peptide binding to endothelial and other cells by flow cytometry", "conditions": "biotinylated peptide 10 μM", "protocol": "as §2"}, "[7]": {"tested_on": "umbilical artery smooth muscle cells (UASMCs)", "experiment": "Biotinylated peptide binding to endothelial and other cells by flow cytometry", "conditions": "biotinylated peptide 10 μM", "protocol": "as §2"}, "[8]": {"tested_on": "HUVECs or UASMCs", "experiment": "Selective isolation of endothelial versus smooth muscle cells with peptide-conjugated magnetic beads in whole blood", "type": "cell-based, human", "conditions": "medium containing 20% whole blood, 30 min", "protocol": "as §2"}, "[9]": {"tested_on": "human MSCs", "experiment": "Capture of cultured MSCs on peptide-coated streptavidin microbeads (LS columns)", "type": "cell-based", "conditions": "160,000 cultured human MSCs", "protocol": "In this experiment the ability of the biotinylated cell binding peptide SEQ ID NO: 4 to capture human MSCs from a homogeneous cultured cell population was examined. The cell binding peptide SEQ ID NO: 4 was biotinylated as described herein at Example 2. The cell binding peptide SEQ ID NO: 4, and a non-binding control peptide, were added to separate 300 μl volumes of […] BIOTEC Streptavidin microbeads at a concentration of 20 μM. These beads are made from iron filings, coated with a dextran coating which is functionalized with streptavidin moieties. Peptide was incubated with beads for 45 min on ice. The 300 μl of peptide coated microbeads were added to pre-equilibrated LS columns outside of the magnetic field to evenly distribute the magnetic beads throughout the columns. Columns were then placed into a magnetic field, and excess peptide was washed away with buffer while retaining the peptide coated microbeads. Cultured and expanded human MSCs from bone marrow aspirate (160,000 cells; LONZA) were added to each LS column and allowed to pass through by gravity flow. Flowthrough was collected and cycled through the columns 5 times, after which the columns were washed with 5 ml buffer. […] The collected flowthrough with 5 ml wash and eluted cells were spun down, resuspended in a smaller volume, and counted by hemacytometer (see FIG. 17). […]"}, "[10]": {"tested_on": "MSCs from bone marrow aspirate", "experiment": "Capture of MSCs from bone marrow aspirate with biotinylated peptide and magnetic beads (CFU)", "type": "cell-based", "protocol": "This experiment was performed to examine the ability of cell binding peptide SEQ ID NO: 4 to capture MSCs directly from bone marrow aspirate in comparison to two separate antibodies against the CD105 I antigen (CD105) and the MSCA-1 stem cell antigen (MSCA-1). This experiment employed biotinylated peptides with streptavidin-coated […] magnetic beads. The peptides were biotinylated as described herein at Example 2. […] For the antibody capture experiment, magnetic beads having covalently attached CD105 or MSCA-1 antibody were employed ([…]). Prior to incubation with the peptides and antibodies, bone marrow aspirate (BMA) was mixed with 5 volumes of 10 mM ammonium chloride for 1-2 min at room temperature to lyse red blood cells. The lysate was centrifuged for 5 min at 300×g and the supernatant discarded. The cell pellet was washed with wash buffer (PBS+0.5% bovine serum albumin+0.5 mM EDTA) and cells were resuspended in […] peptide at a concentration of 10^8 per mL. For peptide binding studies, the cell suspension was incubated with the biotinylated peptides for 30 min at 4° C. to allow for binding. After incubation, cells were spun down at 300×g for 5 min, and peptide solution was aspirated. Cells were then rinsed twice with wash buffer, with centrifugation between washes. […] Colony forming units (CFUs) were counted after 14 days in culture. […]"}, "[11]": {"tested_on": "HUVECs", "experiment": "Endothelial cell phenotype and anti-thrombogenic protein secretion (flow cytometry, ELISA)", "type": "cell-based, human", "conditions": "HUVECs on collagen with 10 μM free peptide, 24 hours", "protocol": "Once immobilized on a vascular graft, endothelial cells must retain their characteristic properties of promoting endothelialization. Therefore, the phenotype, viability, and anti-thrombogenic protein expression profiles were evaluated for endothelial cells in the presence of collagen modified with the endothelial cell binding peptide SEQ ID NO: 4 (generated according to Example 7 using BS^3 reagent). […] Specifically, HUVECs were plated on SEQ ID NO: 4 peptide-modified collagen, collagen with 10 μM free SEQ ID NO: 4 peptide or collagen alone for 24 hours. Flow cytometry was performed using a BD […], and ELISAs were performed according to manufacturers instructions. (FIGS. 22A & 22B). Tissue-type Plasminogen Activator (t-PA) and 6-keto Prostaglandin F1a protein expression levels secreted in this assay are aligned with other reports on cultured HUVECS (Kimura and Yokoi-Hayashi, Biochim Biophys Acta, 1996, 1310:1-4; Merhi-Soussi et al., J Leukoc Biol, 2000, 68:881-9)."}, "[12]": {"tested_on": "MSCs captured from bone marrow", "experiment": "Adipocyte differentiation of captured MSCs (Oil Red O)", "type": "cell-based", "conditions": "21 days adipocyte differentiation medium", "protocol": "After capture of MSCs using cell binding peptide SEQ ID NO: 4 with the […] magnetic system according to Example 6, the ability of the captured cells to differentiate into an adipocyte lineage was examined. The MSCs present in the […] column eluants (see Example 6) were cultured for 21 days in complete medium (DMEM, 10% FBS, 100 units/mL penicillin, 100 μg/mL streptomycin, and 2 mM glutamine) supplemented with 0.5 mM isobutyl methylxanthine, 1 μM dexamethasone, 10 μM insulin, 200 μM indomethacin, and 1% antibiotic/antimycotic. Following the 21 day incubation, the cells were fixed in 4% paraformaldehyde in PBS for 15 minutes, washed in 60% isopropanol for 5 minutes, and stained with Oil Red O (SIGMA) for 10 minutes to determine the extent of adipogenesis (see FIG. 26, panels A (undifferentiated MSCs) and panel B (adipocyte differentiated MSCs)). The image of the adipose differentiated cells (FIG. 26, panel B) contains a larger magnification inset where the lipid vacuoles are clearly visible."}, "[13]": {"tested_on": "MSCs captured from bone marrow", "experiment": "Osteoblast differentiation of captured MSCs (Alizarin Red S)", "type": "cell-based", "conditions": "14 days osteoblast differentiation medium", "protocol": "For osteogenic differentiation, the MSCs present in the […] column eluants (see Example 6) were cultured for 14 days in complete medium supplemented with 0.1 μM dexamethasone, 50 μM ascorbate-2-phosphate, 10 mM β-glycerophosphate, and 1% antibiotic/antimycotic. Calcium mineralization was measured by Alizarin Red S (SIGMA) staining to reveal mineralizing osteoblasts (see FIG. 26, panel C (undifferentiated MSCs) and panel D (osteoblast differentiated MSCs))."}, "[14]": {"tested_on": "MSCs captured from bone marrow", "experiment": "Chondrocyte differentiation of captured MSCs (aggrecan immunostaining)", "type": "cell-based", "conditions": "24 days CHONDRODIFF medium", "protocol": "To examine chondrocyte differentiation, the MSCs present in the […] column eluants (see Example 6) were pelleted by centrifugation at 150×g for 5 minutes. Cells were washed once with 1 ml MACS NH CHONDRODIFF Medium without disturbing the pellet. Cells were spun again and 1 mL CHONDRODIFF Medium was added to each pellet. Every third day, medium was aspirated and replaced with fresh pre-warmed medium. After 24 days in culture, cells exposed to CHONDRODIFF medium formed cartilage plugs or nodules, whereas control cells formed only loose or small nodules. Cells were washed once with PBS and fixed in neutral buffered formalin overnight. Sections were embedded in paraffin and sectioned at 5 microns. Sections were examined by hemotoxylin and eosin staining (data not shown). Sections were further examined by immunostaining for aggrecan, a major structural component of cartilage. In FIG. 27, sections from the periphery (panels A and B) or center (panels C and D) were incubated with an antibody against aggrecan (ABCAM) (panels B and D) or with secondary detection reagents only as a control (panels A and C), then counterstained with DAPI to reveal cell nuclei. […] Control images of captured cells grown in the absence of differentiation medium could not be taken due to the small and loose nature of nodules."}},
  "note": "Ends that are not written are not given here.",
  "data": [
    {"sequence": "SSFWDVCQGDGTCYGGGSR (not fully specified; cysteine pairing not given here) [SEQ ID NO: 4, tested biotinylated (C-terminal GSSGK(biotin)) or attached to substrates via spacer and lysine]", "values": [
      {"measurement": "binding to human ASCs", "setting": "[1]", "value": "high binding"},
      {"measurement": "binding to human MSCs (percent positivity relative to Neutravidin-PE alone)", "setting": "[2]", "value": "high binding"},
      {"measurement": "binding to dermal fibroblasts", "setting": "[3]", "value": "high binding"},
      {"measurement": "cross-reactivity with ECFCs", "setting": "[4]", "value": "cross-reacted strongly"},
      {"measurement": "cross-reactivity with peripheral blood cells", "setting": "[5]", "value": "no cross-reactivity"},
      {"measurement": "cross-reactivity with HUVECs", "setting": "[6]", "value": "cross-reacted strongly"},
      {"measurement": "cross-reactivity with UASMCs", "setting": "[7]", "value": "weakly"},
      {"measurement": "HUVECs isolated compared to UASMCs", "setting": "[8]", "value": 8, "unit": "fold"},
      {"measurement": "capture of MSCs", "setting": "[9]", "value": "approximately 70%"},
      {"measurement": "MSC capture from bone marrow aspirate (CFUs after 14 days)", "setting": "[10]; compared with CD105 and MSCA-1 antibody beads", "value": "as efficient as capture by either of the CD105 or MSCA-1 antibodies"},
      {"measurement": "immunoreactivity of captured cells (CD29, CD44, CD73, CD105, CD166, CD90, CD45, CD34)", "setting": "[10]; compared with CD105 isolated cells", "value": "no changes were observed"},
      {"measurement": "endothelial cell phenotype and anti-thrombogenic protein secretion", "setting": "[11]", "value": "maintained their endothelial cell phenotype and their ability to secrete anti-thrombogenic proteins"},
      {"measurement": "adipogenesis of captured MSCs", "setting": "[12]", "value": "adipogenesis pathway remains intact"},
      {"measurement": "osteogenic differentiation of captured MSCs", "setting": "[13]", "value": "osteogenic pathway remains intact"},
      {"measurement": "aggrecan in nodules formed from captured MSCs", "setting": "[14]", "value": "aggrecan could be detected"}
    ]}
  ]
}
